From US6521619B2, “Aryl phenylcyclopropyl sulfide derivatives and their use as cell adhesion inhibiting anti-inflammatory and immune suppressive agents” (Icos Corporation, priority 2000, dated 2003)
Read-outs that look alike come from different tables or passages of the source.

Key:
[1] = molecular target: T1, ICAM-1/LFA-1 interaction (recombinant LFA-1, biotinylated recombinant ICAM-1/Ig) (Homo sapiens, UniProt P20701); assay: ICAM-1/LFA-1 Biochemical Interaction Assay (46A); assay type: binding
T1 construct: Recombinant LFA-1 (100 mL of 0.7 mg/ml, ICOS Corporation) in D-PBS is then added to each well
Method: Compounds that antagonize the interaction between ICAM-1 and LFA-1 can be identified, and their activities quantitated, using both biochemical and cell-based adhesion assays. A primary biochemical assay, described below as assay 46A, was utilized to measure the ability of the present compounds to block the interaction between the integrin LFA-1 and its adhesion partner ICAM-1.
46A. ICAM-1/LFA-1 Biochemical Interaction Assay
In the biochemical assay, 100 mL of anti-LFA-1 antibody (ICOS Corporation) at a concentration of 5 mg/ml in Dulbecco's phosphate-buffered saline (D-PBS) is used to coat wells of a 96-well microtiter plate overnight at 4° C. The wells are then washed twice with wash buffer (D-PBS w/o Ca^++ or Mg^++, 0.05% Tween 20) and blocked by addition of 200 mL of D-PBS, 5% fish skin gelatin. Recombinant LFA-1 (100 mL of 0.7 mg/ml, ICOS Corporation) in D-PBS is then added to each well. Incubation continues for 1 hour at room temperature and the wells are washed twice with wash buffer. Serial dilutions of compounds being assayed as ICAM-1/LFA-1 antagonists, prepared as 10 mM stock solutions in dimethyl sulfoxide (DMSO), are diluted in D-PBS, 2 mM MgCl2, 1% fish skin gelatin and 50 mL of each dilution added to duplicate wells. This is followed by addition of […] of 0.8 mg/ml biotinylated recombinant ICAM-1/Ig (ICOS Corporation) to the wells and the plates are incubated at room temperature for 1 hour The wells are then washed twice with wash buffer and 100 mL of Europium-labeled Streptavidin (Wallac Oy) diluted 1:100 in Delfia assay buffer (Wallac Oy) are added to the wells. Incubation proceeds for 1 hour at room temperature. […] Incubation proceeds for 5 minutes with constant mixing.
where “background” refers to wells that are not coated with anti-LFA-1 antibody.

[2] = tested on: JY-8 cells (expressing LFA-1) adhering to immobilized ICAM-1; assay: ICAM-1/JY-8 Cell Adhesion Assay (46B); assay type: cell-based, human; conditions: Homo sapiens, JY-8 cell adhesion to ICAM-1; for inhibition at 2 µM: @ 2 μM compound (cell); for inhibition at 4 µM: @ 4 μM compound
Method: Biologically relevant activity of the compounds in this invention was confirmed using a cell-based adhesion assay, (described below as assay 46B) which measured the ability of the present compounds to block the adherence of JY-8 cells (a human EBV-transformed B cell line expressing LFA-1 on its surface) to immobilized ICAM-1.
46B. ICAM-1 /JY-8 Cell Adhesion Assay
For measurement of inhibitory activity in the cell-based adhesion assay, 96-well microtiter plates are coated with 70 μL of recombinant ICAM-1/g (ICOS Corporation) at a concentration of 5 μg/mL in D-PBS w/o Ca^++ or Mg^++ overnight at 4° C. The wells are then washed twice with D-PBS and blocked by addition of 200 μL of D-PBS, 5% fish skin gelatin by incubation for 1 hour at room temperature. Fluorescent tagged JY-8 cells (a human EBV-transformed B cell line expressing LFA-1 on its surface; 50 μL at 2×10^6 cells/ml in RPMI 1640 (standard cell culture medium)/1% fetal bovine serum) are added to the wells. For fluorescent labeling of JY-8 cells, 5×10^6 cells washed once in RPMI 1640 are resuspended in 1 mL of RPMI 1640 containing 2 μM Calceiun AM (MolecularProbes), are incubated at 37° C for 30 minutes and washed once with RPMI-1640/1% fetal bovine serum. Dilutions of compounds to be assayed for ICAM-1/LFA-1 antagonistic activity are prepared in RPMI-1640/1% fetal bovine serum from 10 mM stock solutions in DMSO and 50 μL are added to duplicate wells. Microtiter plates are incubated for 45 minutes at room temperature and the wells are washed gently once with RPMI-1640/1% fetal bovine serum. Fluorescent intensity is measured in a fluorescent plate reader with an excitation wavelength at 485 nm and an emission wavelength at 530 nm. The percent inhibition of a candidate compound at a given concentration is calculated using the following equation: [formula]
and these concentration/inhibition data are used to generate dose response curves, from which IC50 values are derived.

[3] = @ 2 μM compound, read-out: % inhibition

T1 sequence (P20701 26-1170): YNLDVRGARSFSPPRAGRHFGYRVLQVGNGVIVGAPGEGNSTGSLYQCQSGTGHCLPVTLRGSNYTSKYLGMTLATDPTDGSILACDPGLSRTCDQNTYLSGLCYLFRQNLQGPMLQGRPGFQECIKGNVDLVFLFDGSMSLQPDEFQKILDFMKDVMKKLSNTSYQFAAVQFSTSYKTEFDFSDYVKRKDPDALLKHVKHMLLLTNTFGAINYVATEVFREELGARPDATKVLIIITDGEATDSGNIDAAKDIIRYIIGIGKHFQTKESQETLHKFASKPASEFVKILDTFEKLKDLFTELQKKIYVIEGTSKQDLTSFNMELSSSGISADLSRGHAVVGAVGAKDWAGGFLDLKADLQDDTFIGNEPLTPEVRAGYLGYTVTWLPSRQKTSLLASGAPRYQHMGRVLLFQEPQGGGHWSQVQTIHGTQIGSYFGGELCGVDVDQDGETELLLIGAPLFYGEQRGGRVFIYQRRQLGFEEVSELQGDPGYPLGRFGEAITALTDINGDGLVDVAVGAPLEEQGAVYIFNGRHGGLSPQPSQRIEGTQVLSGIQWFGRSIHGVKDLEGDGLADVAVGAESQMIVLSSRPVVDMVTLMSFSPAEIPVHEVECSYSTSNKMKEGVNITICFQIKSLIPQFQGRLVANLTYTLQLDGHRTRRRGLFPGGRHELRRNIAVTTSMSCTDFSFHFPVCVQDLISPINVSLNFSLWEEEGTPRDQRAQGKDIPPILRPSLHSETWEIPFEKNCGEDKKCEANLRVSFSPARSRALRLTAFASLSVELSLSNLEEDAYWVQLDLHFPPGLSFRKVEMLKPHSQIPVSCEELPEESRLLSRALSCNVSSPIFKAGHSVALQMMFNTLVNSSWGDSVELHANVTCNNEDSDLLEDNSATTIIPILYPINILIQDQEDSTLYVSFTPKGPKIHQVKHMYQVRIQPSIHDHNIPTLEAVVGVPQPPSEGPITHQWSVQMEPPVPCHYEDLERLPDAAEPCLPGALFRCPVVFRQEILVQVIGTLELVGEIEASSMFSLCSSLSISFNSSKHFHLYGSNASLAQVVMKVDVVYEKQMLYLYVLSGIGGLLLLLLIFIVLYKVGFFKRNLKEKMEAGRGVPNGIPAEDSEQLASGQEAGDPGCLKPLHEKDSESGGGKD
T1 sequence (P05107 23-769 partner): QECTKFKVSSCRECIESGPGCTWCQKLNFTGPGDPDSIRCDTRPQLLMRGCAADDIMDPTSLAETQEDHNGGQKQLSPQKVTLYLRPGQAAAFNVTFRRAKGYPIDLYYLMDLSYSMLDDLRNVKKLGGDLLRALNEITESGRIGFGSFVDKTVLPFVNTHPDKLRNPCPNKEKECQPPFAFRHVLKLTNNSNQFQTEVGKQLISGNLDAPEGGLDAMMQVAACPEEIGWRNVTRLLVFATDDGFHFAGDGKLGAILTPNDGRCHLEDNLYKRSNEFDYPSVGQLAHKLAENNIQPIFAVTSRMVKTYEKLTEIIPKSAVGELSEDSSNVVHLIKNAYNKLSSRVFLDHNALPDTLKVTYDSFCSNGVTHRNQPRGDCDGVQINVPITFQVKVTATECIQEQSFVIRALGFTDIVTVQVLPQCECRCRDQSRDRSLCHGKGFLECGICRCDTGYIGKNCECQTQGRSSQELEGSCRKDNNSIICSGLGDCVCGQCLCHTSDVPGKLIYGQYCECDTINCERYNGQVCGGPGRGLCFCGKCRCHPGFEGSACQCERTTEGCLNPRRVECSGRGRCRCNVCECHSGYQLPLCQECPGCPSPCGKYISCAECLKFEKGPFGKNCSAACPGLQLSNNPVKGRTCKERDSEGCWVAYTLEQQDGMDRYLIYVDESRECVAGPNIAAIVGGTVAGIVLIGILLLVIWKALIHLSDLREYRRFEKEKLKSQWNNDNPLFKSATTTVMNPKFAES

O=C(O)C1CCCN(c2ccccc2Sc2ccc(C3CC3C(=O)NCCCN3CCCC3=O)cc2C(F)(F)F)C1 (mixture of isomers) [Example 6, (±)-(2-(2-carboxyethyl)phenyl)[2-trifluoromethyl-4-(trans-(2-((3-(1-pyrrolidin-2-onyl)-prop-1-ylamino)carbonyl)cycloprop-1-yl)phenyl]sulfide]
inhibition at 2 µM ([1]; @ 2 μM compound): 93%

COc1ccccc1Sc1ccc(C2CC2C(=O)NCC(=O)O)c(Cl)c1Cl (mixture of isomers) [Example 12]
inhibition at 4 µM ([1]; @ 4 μM compound): 93%

COc1ccccc1Sc1ccc(C2CC2C(=O)NCCC(=O)O)c(Cl)c1Cl (mixture of isomers) [Example 13]
inhibition at 4 µM ([1]; @ 4 μM compound): 95%

O=C(NCCCN1CCCC1=O)C1CC1c1ccc(Sc2ccccc2Br)c(C(F)(F)F)c1 (racemic) [Example 1, (±)-(2-Bromophenyl)[2-trifluoromethyl-4-(trans-(2-((3-(1-pyrrolidin-2-onyl)-prop-1-ylamino)carbonyl)cycloprop-1-yl)phenyl]sulfide]
inhibition at 4 µM ([1]; @ 4 μM compound): 92%

CC(C)c1ccccc1Sc1ccc(C2CC2C(=O)NCC(=O)O)c(Cl)c1Cl (racemic) [Example 2, (±)-(2-Isopropylphenyl)[2,3-dichloro-4-(trans-(carboxymethylamino)carbonyl)cycloprop-1-yl)phenyl]sulfide]
inhibition at 2 µM [1, 3]: 95%

CC(C)c1ccccc1Sc1ccc(C2CC2C(=O)N2CCCC(C(=O)O)C2)c(Cl)c1Cl (racemic) [Example 3, (±)-(2-Isopropylphenyl)[2,3-dichloro-4-(trans-(2-(3-carboxypiperidine))carbonyl)cycloprop-1-yl)phenyl]sulfide]
inhibition at 2 µM [2]: 90%

O=C(NCCCN1CCCC1=O)C1CC1c1ccc(Sc2ccccc2N2CCOCC2)c(C(F)(F)F)c1 (racemic) [Example 7, (±)-(2-Morpholin-1-ylphenyl)[2-trifluoromethyl-4-(trans-(2-((3-(1-pyrrolidin-2-onyl)-prop-1-ylamino)carbonyl)cycloprop-1-yl)phenyl]sulfide]
inhibition at 1 µM ([2]; @ 1 μM compound (cell)): 84%

O=C(NCCCN1CCCC1=O)C1CC1c1ccc(Sc2ccccc2N2CCOCC2)c(Cl)c1 (racemic) [Example 8, (±)-(2-Morpholin-1-ylphenyl)[2-chloro-4-(trans-(2-((3-(1-pyrrolidin-2-onyl)-prop-1-ylamino)carbonyl)cycloprop-1-yl)phenyl]sulfide]
inhibition at 2 µM [1, 3]: 94% | inhibition at 4 µM ([1]; @ 4 μM compound): 94% | inhibition at 4 µM [2]: 70%

O=C(NCCCN1CCCC1=O)C1CC1c1ccc(Sc2ccccc2N2CCCC2)c(C(F)(F)F)c1 (racemic) [Example 10, (±)-(2-Pyrrolidin-1-ylphenyl)[2-trifluoromethyl-4-(trans-(2-((3-(1-pyrrolidin-2-onyl)-prop-1-ylamino)carbonyl)cycloprop-1-yl)phenyl]sulfide]
inhibition at 4 µM [2]: 72%

O=C(NCCCN1CCCC1=O)C1CC1c1ccc(Sc2cccc(N3CCOCC3)c2)c(C(F)(F)F)c1 (racemic) [Example 11, (±)-(3-Morpholin-1-ylphenyl)[2-trifluoromethyl-4-(trans-(2-((3-(1-pyrrolidin-2-onyl)-prop-1-ylamino)carbonyl)cycloprop-1-yl)phenyl]sulfide]
inhibition at 4 µM ([1]; @ 4 μM compound): 44%

O=C(O)C1CC1c1ccc(Sc2ccccc2N2CCOCC2)c(Cl)c1Cl (racemic) [Example 12, (±)-(2-Morpholin-1-ylphenyl)[2,3-dichloro-4-(trans-(2-carboxycycloprop-1-yl)phenyl]sulfide]
inhibition at 4 µM ([1]; @ 4 μM compound): 91%

O=C(O)C1CC1c1ccc(Sc2ccccc2Br)c(Cl)c1Cl (racemic) [Example 15, (±)-(2-Bromophenyl)[2,3-dichloro-4-(trans-(2-carboxycycloprop-1-yl)phenyl]sulfide]
inhibition at 4 µM ([1]; @ 4 μM compound): 88%

CC(C)c1ccccc1Sc1ccc(C2CC2C(=O)NCCCC(=O)O)c(Cl)c1Cl (racemic) [Example 17, (±)-(2-Isopropylphenyl)[2,3-dichloro-4-(trans-(2-(3-carboxypropylamino)carbonyl)cycloprop-1-yl)phenyl]sulfide]
inhibition at 2 µM [2]: 86%

CC(C)c1ccccc1Sc1ccc([C@@H]2C[C@H]2C(=O)N2CCCCC2C(=O)O)c(Cl)c1Cl (mixture of isomers) [Example 19, (±)-(2-Isopropylphenyl)[2,3-dichloro-4-(trans-(2-(2-carboxypiperidin-1-yl)carbonyl)cycloprop-1-yl)phenyl]sulfide]
% inhibition ([1]; @ 4 μM compound): 96% @ 4 μM

CC(C)c1ccccc1Sc1ccc(C2CC2C(=O)N2CCOCC2)c(Cl)c1Cl (racemic) [Example 20, (±)-(2-Isopropylphenyl)[2,3-dichloro-4-(trans-(2-(morpholin-1-yl)carbonyl)cycloprop-1-yl)phenyl]sulfide]
inhibition at 2 µM [1, 3]: 96%

CC(C)c1ccccc1Sc1ccc(C2CC2C(=O)NCCCN2CCCC2=O)c(Cl)c1Cl (racemic) [Example 22, (±)-(2-Isopropylphenyl)[2,3-dichloro-4-(trans-(2-((3-(1-pyrrolidin-2-onyl)-prop-1-ylamino)carbonyl)cycloprop-1-yl)phenyl]sulfide]
inhibition at 2 µM [2]: 92%

CC(C)c1ccccc1Sc1ccc([C@@H]2C[C@H]2C(=O)NC2CCC2)c(Cl)c1Cl (racemic) [Example 24, (±)-(2-Isopropylphenyl)[2,3-dichloro-4-(trans-2-(cyclobutylaminocarbonyl)cycloprop-1-yl)phenyl]sulfide]
inhibition at 2 µM [1, 3]: 94%

CC(C)c1ccccc1Sc1ccc(C2CC2C(=O)N2CCC2)c(Cl)c1Cl (racemic) [Example 25, (±)-(2-Isopropylphenyl)[2,3-dichloro-4-(trans-(2-(azetidin-1-yl)carbonyl)cycloprop-1-yl)phenyl]sulfide]
inhibition at 2 µM [1, 3]: 95%

O=C(NCCCN1CCCC1=O)[C@@H]1C[C@H]1c1ccc(Sc2ccccc2Br)c(C(F)(F)F)c1 (relative stereo) [Example 4]
% inhibition ([1]; @ 2 μM compound, 2 µM): 81% @ 2 μM

O=C(NCCCN1CCCC1=O)[C@@H]1C[C@H]1c1ccc(Sc2ccccc2Br)c(C(F)(F)F)c1 (relative stereo) [Example 5]
% inhibition ([1]; @ 2 μM compound, 2 µM): 94% @ 2 μM

(±)-(2-Bromophenyl)[2-trifluoromethyl-4-(trans-(2-((3-(1-pyrrolidin-2-onyl)-prop-1-ylamino)carbonyl)cycloprop-1-yl)phenyl]sulfide [Example 1]
% inhibition ([1]; @ 2 μM compound): 96% @ 2 μM

(±)-(2-Isopropylphenyl)[2,3-dichloro-4-(trans-2-(cyclobutylaminocarbonyl)cycloprop-1-yl)phenyl]sulfide [Example 24]
% inhibition ([1]; @ 4 μM compound): 96% @ 4 μM

(±)-(2-Isopropylphenyl)[2,3-dichloro-4-(trans-(2-(4-acetylpiperazin-1-yl)carbonyl)cycloprop-1-yl)phenyl]sulfide [Example 21]
% inhibition ([1]; @ 4 μM compound): 96% @ 4 μM

(±)-(2-Isopropylphenyl)[2,3-dichloro-4-(trans-(2-(4-carboxypiperidin-1-yl)carbonyl)cycloprop-1-yl)phenyl]sulfide [Example 18]
% inhibition ([1]; @ 4 μM compound): 94% @ 4 μM

(±)-(2-Isopropylphenyl)[2,3-dichloro-4-(trans-(2-(morpholin-1-yl)carbonyl)cycloprop-1-yl)phenyl]sulfide [Example 20]
% inhibition ([1]; @ 4 μM compound): 96% @ 4 μM
